These results are taken from PubChem BioAssay (NCI).

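Dose response: 5 concentrations. Exposure: 48 h. Format: 96-well plates. Endpoint: linear interpolation; highest concentration if not reached. Abbreviation: GI50, concentration required for 50% inhibition of growth. TGI marks complete inhibition of growth.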

Test systems include SK-MEL-5 melanoma; SF-268 CNS; SK-OV-3 ovarian; SNB-75 CNS; SF-295 CNS; UACC-62 melanoma; TK-10 renal; A549 NSCLC; MOLT-4 leukemia; OVCAR-3 ovarian.
What all share (test): DTP human tumour cell line panel, 48 h

Regarding `C=C1CC[C@@H]2[C@](C)(COC(C)=O)[C@H](OC(C)=O)CC[C@@]2(C)[C@@H]1CC(Nc1ccc(S(=O)(=O)Nc2nccc(C)n2)cc1)C1=CCOC1=O` (stereo partly drawn), the GI50 is 3.79 µM with SK-MEL-5 melanoma; 6.19 µM in the assay with SF-268 CNS; 12.7 µM in the assay on SK-OV-3 ovarian; 2.69 µM in the assay with SNB-75 CNS; 12.4 µM with SF-295 CNS; 2.38 µM in the assay with UACC-62 melanoma. In addition, the GI50 was 4.94 µM in the assay on TK-10 renal, 8.19 µM in the assay with A549 NSCLC, 3.22 µM in the assay on MOLT-4 leukemia and 1.76 µM in the assay on OVCAR-3 ovarian. Besides, the concentration for total growth inhibition (TGI) in the assay on SK-MEL-5 melanoma was 14 µM; in the assay with SF-268 CNS, 20.9 µM; in the assay on SK-OV-3 ovarian it was 25.3 µM; in the assay on SNB-75 CNS, 14.9 µM; with SF-295 CNS it was 25.6 µM; in the assay with UACC-62 melanoma, 7.13 µM. Further, the TGI in the assay with TK-10 renal came to 15.8 µM; with A549 NSCLC, 21.9 µM; with MOLT-4 leukemia, 17.9 µM; with OVCAR-3 ovarian, 3.36 µM.

For `Nc1nc2c(c(=O)[nH]1)CN(c1ccc(S(N)(=O)=O)cc1)CN2`, the TGI with SK-MEL-5 melanoma, in the assay on SF-268 CNS, with SF-295 CNS, in the assay on UACC-62 melanoma, in the assay with TK-10 renal and with A549 NSCLC was over 100 µM in each case. For the same compound, the TGI with MOLT-4 leukemia and in the assay with OVCAR-3 ovarian was over 100 µM throughout.

In the case of `CO/N=C(\C)c1ccc(Nc2cc(-c3ccccc3)nc3c(O)cccc23)cc1`, the GI50 in the assay on SK-MEL-5 melanoma was 23.9 µM; with SK-OV-3 ovarian it was 18.8 µM; in the assay with SNB-75 CNS, 22.1 µM; in the assay with SF-295 CNS it was 12.7 µM; with UACC-62 melanoma, 14.6 µM; with A549 NSCLC, 12.8 µM. In addition, the GI50 with OVCAR-3 ovarian is 16.4 µM. Also, the total growth inhibition concentration (TGI) was found to be 91.4 µM with SK-MEL-5 melanoma; 35.5 µM with SK-OV-3 ovarian; 46.1 µM in the assay with SNB-75 CNS; 27.9 µM with SF-295 CNS; 28.8 µM in the assay with UACC-62 melanoma; 28.9 µM in the assay with A549 NSCLC. In addition, the TGI in the assay with OVCAR-3 ovarian is 32.4 µM.

Take `O=c1cc(-c2ccccc2)c2cc3c(=O)ccoc3cc2o1`: the TGI in the assay with SK-MEL-5 melanoma is over 100 µM; in the assay with SF-268 CNS it was over 100 µM; with SNB-75 CNS it was 90.3 µM; in the assay with SF-295 CNS, over 100 µM; in the assay with UACC-62 melanoma, over 100 µM; with TK-10 renal it was over 100 µM. Also, the TGI with A549 NSCLC, in the assay with MOLT-4 leukemia and in the assay with OVCAR-3 ovarian was over 100 µM in each case.

With `CC(=O)OCC1OC(n2ccc(=O)[nH]c2=O)C(OC(C)=O)C1OC(C)=O` (stereo not drawn), the GI50 in the assay on SK-MEL-5 melanoma, with SF-268 CNS, with SK-OV-3 ovarian, in the assay on SNB-75 CNS, in the assay with SF-295 CNS and in the assay with UACC-62 melanoma was over 100 µM in each case. In addition, the GI50 in the assay with TK-10 renal, in the assay with A549 NSCLC and in the assay with OVCAR-3 ovarian was over 100 µM in each case. The total growth inhibition concentration (TGI) in the assay with SK-MEL-5 melanoma, in the assay with SF-268 CNS, in the assay with SK-OV-3 ovarian, with SNB-75 CNS, with SF-295 CNS and with UACC-62 melanoma was over 100 µM throughout. The TGI in the assay with TK-10 renal, with A549 NSCLC and in the assay on OVCAR-3 ovarian was over 100 µM each time.

`NNC(=O)CCC(=O)NC1C2CC3CC(C2)CC1C3` (stereo not drawn): the TGI with SK-MEL-5 melanoma, in the assay with SF-268 CNS, in the assay with SK-OV-3 ovarian, in the assay with SNB-75 CNS, in the assay with SF-295 CNS and in the assay on UACC-62 melanoma was over 100 µM throughout. The TGI with TK-10 renal, in the assay on A549 NSCLC and in the assay with MOLT-4 leukemia was over 100 µM throughout.

For `CCc1cc(O)c(Cl)c(C)c1Cl`, the TGI was 33.3 µM with SK-MEL-5 melanoma; over 100 µM with SF-268 CNS; 34.5 µM in the assay with SK-OV-3 ovarian; 34.1 µM in the assay with SNB-75 CNS; 42.5 µM with SF-295 CNS; 35.1 µM in the assay on UACC-62 melanoma. The TGI with TK-10 renal is 35.9 µM; in the assay on A549 NSCLC, over 100 µM; in the assay on OVCAR-3 ovarian, 33.5 µM.

Consider `Cc1ccc(NC(=O)/C(=N\Nc2ccc([N+](=O)[O-])cc2[N+](=O)[O-])C2C(=O)NC(=O)NC2=O)cc1`, for which the total growth inhibition concentration (TGI) was over 100 µM with SK-MEL-5 melanoma; over 100 µM in the assay with SF-268 CNS; over 100 µM in the assay with SK-OV-3 ovarian; over 100 µM in the assay with SNB-75 CNS; over 100 µM with SF-295 CNS; 97.6 µM in the assay with UACC-62 melanoma. The TGI with TK-10 renal, with A549 NSCLC and with OVCAR-3 ovarian was over 100 µM throughout.

As for `COc1ccc(-c2cncn2-c2ccc(OC)cc2)cc1`, the GI50 was 17.9 µM in the assay on SK-MEL-5 melanoma; 21.7 µM in the assay with SF-268 CNS; 12.7 µM with SF-295 CNS; 15.7 µM in the assay with UACC-62 melanoma; 17.4 µM in the assay on TK-10 renal; 20.6 µM with A549 NSCLC. The GI50 in the assay with OVCAR-3 ovarian is 20 µM. Also, the TGI in the assay on SK-MEL-5 melanoma came to 33.8 µM; in the assay on SF-268 CNS it was 66.2 µM; in the assay with SF-295 CNS it was 47 µM; in the assay with UACC-62 melanoma, 53.1 µM; in the assay on TK-10 renal, 41.9 µM; in the assay with A549 NSCLC, 49.3 µM. The concentration for total growth inhibition (TGI) in the assay with OVCAR-3 ovarian was determined as 45.5 µM.

For the compound `CCCCCCCCCCCC[n+]1ccc(CCCCCCCCC)cc1`, the GI50 is 1.38 µM with SF-268 CNS; 1.51 µM in the assay on SK-OV-3 ovarian; 1.26 µM in the assay on SNB-75 CNS; 0.465 µM in the assay on UACC-62 melanoma; 1.35 µM with TK-10 renal. In addition, the total growth inhibition concentration (TGI) in the assay on SF-268 CNS is 2.94 µM; in the assay with SK-OV-3 ovarian, 2.89 µM; in the assay with SNB-75 CNS it was 2.57 µM; in the assay with UACC-62 melanoma it was 1.73 µM; in the assay on TK-10 renal, 2.76 µM.

Turning to `COc1cccc(C(=O)C2C(=O)N(C)CCc3ccccc32)c1OC` (stereo not drawn), the TGI in the assay on SK-MEL-5 melanoma, in the assay on SK-OV-3 ovarian, with SNB-75 CNS, with UACC-62 melanoma, with TK-10 renal and with A549 NSCLC was over 100 µM throughout. For the same compound, the TGI in the assay on MOLT-4 leukemia and with OVCAR-3 ovarian was over 100 µM throughout.
